Structures are written as SMILES.

Experiment [1] concerns NCI-N87 cells. As to the kind of experiment: In vitro cytotoxicity, 6 day assay, Cell Titer-Glo (Example 1). The following applies: Homo sapiens, NCI-N87, 144 h.
Experimental: (§1) NCI-N87 cells, which overexpress HER2, were used as targets for in vitro cytotoxicity in a 6 day assay.
24 h prior to plating, cells were passaged to ensure log-phase growth. On the day of plating, 5000 cells/well were seeded onto 96-well plates in 90 μL normal growth medium supplemented with 10 IU penicillin and 10 μg/mL streptomycin (Cellgro). Cells were treated at various concentrations with 10 μL of diluted analytes, and the plates were incubated at 37° C. in an atmosphere of 5% CO2. After 6 d, 100 μL/well of Cell Titer-Glo reagent (Promega, Madison, WI) was added, and luminescence was measured using a Molecular Devices SpectraMax M5 plate reader. GraphPad Prism software was used for data analysis, including IC50 calculations.
In experiment [2] the test system is NCI-N87 cells. As to the kind of experiment: In vitro cytotoxicity, 6 day assay, Cell Titer-Glo (Example 2). The class given is cell-based. The following applies: Homo sapiens, 144 h; NCI-N87, 6 day assay; antibody concentrations except for the free drug.
Experimental: as §1
The HER2-positive breast carcinoma cell line, NCI-N87, was obtained from ATCC and maintained in RPMI-1640 medium (Cellgro) supplemented with 10% fetal bovine serum (Invitrogen) and Glutamax (Invitrogen). 24 h prior to plating, cells were passaged to ensure log-phase growth. On the day of plating, 5000 cells/well were seeded onto 96-well plates in 90 μL normal growth medium supplemented with 10 IU penicillin and 10 μg/mL streptomycin (Cellgro). Cells were treated at various concentrations with 10 μL of diluted analytes, and the plates were incubated at 37° C. in an atmosphere of 5% CO2. After 6 d, 100 μL/well of Cell Titer-Glo reagent (Promega) was added, and luminescence was measured using a Molecular Devices SpectraMax M5 plate reader. GraphPad Prism software was used for data analysis, including IC50 calculations.
Experiment [3] has as its system NCI-N87 cells. The experiment is described as follows: In vitro cytotoxicity, 6 d, Cell Titer-Glo (Example 5). The class given is cell-based. The following applies: Homo sapiens, 144 h; NCI-N87, 6 d.
Experimental: The HER2-positive gastric carcinoma cell line, NCI-N87, was obtained from ATCC and maintained in RPMI-1640 medium (Cellgro) supplemented with 10% fetal bovine serum (Invitrogen) and Glutamax (Invitrogen). 24 h prior to plating, cells were passaged to ensure log-phase growth. On the day of plating, 5000 cells/well were seeded onto 96-well plates in 90 μL normal growth medium supplemented with 10 IU penicillin and 10 μg/mL streptomycin (Cellgro). […] After 6 d, 100 μL/well of Cell Titer-Glo reagent (Promega) was added, and luminescence was measured using a Molecular Devices SpectraMax M5 plate reader. GraphPad Prism software was used for data analysis.

With `COc1cc2cc(c1Cl)N(C)C(=O)C[C@H](OC(=O)[C@H](C)N(C)C(C)=O)[C@]1(C)O[C@H]1[C@H](C)[C@@H]1C[C@@](O)(NC(=O)O1)[C@H](OC)/C=C/C=C(\C)C2` [free maytansine, maytansine], the 50% inhibitory concentration (IC50) was determined as 0.214 nM in experiment [1], 0.25 nM in experiment [2] and 0.35 nM in experiment [3].

The values above are taken from US12076411B2, “Anti-HER2 antibody-maytansine conjugates and methods of use thereof” (priority 2014, dated 2024).
